# From PMC2805240 (Journal of chemical information and modeling, 2009)
# Assays:
# LF = conditions: read-out: IC50 in a LF enzyme assay; cited from earlier work
# macrophage = conditions: cited from earlier work
# [1] = biological target: anthrax toxin lethal factor (Bacillus anthracis, UniProt P15917); assay: biochemical
# Chain of anthrax toxin lethal factor (P15917 34-809 limits assumed): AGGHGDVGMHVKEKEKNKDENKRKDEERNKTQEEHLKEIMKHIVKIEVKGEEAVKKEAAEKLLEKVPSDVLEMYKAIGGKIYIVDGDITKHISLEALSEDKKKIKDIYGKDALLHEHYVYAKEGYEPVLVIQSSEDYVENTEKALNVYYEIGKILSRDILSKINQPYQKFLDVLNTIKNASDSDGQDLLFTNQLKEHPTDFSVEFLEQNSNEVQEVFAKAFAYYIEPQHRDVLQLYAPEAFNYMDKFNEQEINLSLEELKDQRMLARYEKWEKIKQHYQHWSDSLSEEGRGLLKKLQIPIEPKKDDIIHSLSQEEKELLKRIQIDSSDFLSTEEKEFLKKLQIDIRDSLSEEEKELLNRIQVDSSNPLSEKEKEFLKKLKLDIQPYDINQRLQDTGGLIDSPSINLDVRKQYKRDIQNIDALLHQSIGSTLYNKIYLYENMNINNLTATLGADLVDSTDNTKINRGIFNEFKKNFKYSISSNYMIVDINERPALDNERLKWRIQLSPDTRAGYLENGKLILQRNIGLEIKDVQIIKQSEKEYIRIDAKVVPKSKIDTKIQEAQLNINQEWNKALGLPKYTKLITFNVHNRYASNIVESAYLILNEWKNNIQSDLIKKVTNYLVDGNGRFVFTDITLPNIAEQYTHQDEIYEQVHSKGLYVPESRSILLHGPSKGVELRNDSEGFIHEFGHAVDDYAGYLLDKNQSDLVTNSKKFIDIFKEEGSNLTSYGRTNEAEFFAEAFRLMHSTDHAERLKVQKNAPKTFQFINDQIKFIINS
Compound,IC50 (LF),IC50 (macrophage),IC50 [1]
"Cc1cc(S(=O)(=O)N[C@@H](C(=O)NO)C2CCOCC2)ccc1F [compound 40, (2R)-2-[(4-fluoro-3-methylphenyl)sulfonylamino]-N-hydroxy-2-(tetrahydro-2H-pyran-4-yl)acetamide]",0.054 µM,0.21 µM,–
"CCN(Cc1ccccc1)Cc1cc(Br)ccc1O [compound 5428736, 2-[(benzyl(ethyl)amino)methyl]-4-bromophenol]",–,–,73.9 ± 4.5 µM
"CCN(Cc1ccccc1)Cc1cc(Cl)ccc1O [compound 5421384, 2-[(benzyl(ethyl)amino)methyl]-4-chlorophenol]",–,–,67.5 ± 2 µM
"CNC(=O)[C@H](Cc1c[nH]c2ccccc12)NC(=O)[C@@H](CC(=O)NO)CC(C)C [GM6001/M364205, ilomastat]",–,–,10.2 ± 0.72 µM
"CCN(Cc1ccccc1)Cc1cc(I)cc(I)c1O [compound 5426202, 2-[(benzyl(ethyl)amino)methyl]-4,6-diiodophenol]",–,–,49.5 ± 1.5 µM
